Data on 41 molecules can be found in patent US11884627B2, “Compounds and compositions for treating conditions associated with LPA receptor activity” (Lhotse Bio, Inc., priority 2022, dated 2024).

The assay deals with T1, human LPA1 (Homo sapiens, UniProt Q92633).
T1 construct: expressed in transfected cells; host or cells: CHO-K1
Put plainly: In vitro LPA1 calcium flux antagonist assay - Bioduro protocol. Particulars: CHO-K1 cells overexpressing human LPA1 and G15a, LPA challenge at EC80. The format is cell-based. As for the experimental part:
In Vitro LPA1 Calcium Flux Antagonist Assay—Bioduro Protocol
CHO-K1 cells overexpressing human LPA1 and G15a were seeded at a total volume of 20 μL (15000 cells/well) into Matrigel pre-coated 384-well plates (corning −3764) and incubated at 37° C. After overnight incubation, the cells were serum starved for 4 h. Assays were performed in dye loading buffer containing 1× Fluo-8 AM (AAT Bioquest, 21080) and 2.5 mM probenecid (Thermo Fisher, 36400) in HBSS/20 mM Hepes. After cell starvation, the medium was replaced with 20 μL of dye loading buffer and incubated at 37° C., for 30 min. Then 5 μL of 5× compound titrated in dye loading buffer was added to the cells and incubated for 30 min followed by LPA challenge at EC80. Calcium mobilization was measured on a FLIPR Tetra (MSD). For LPA EC80 determination, starved cells were incubated with 20 μL of dye loading buffer for 1 h, then 5 μL of 5×LPA titrated in dye loading buffer was added to the cells. Calcium signals induced by LPA was monitors on a FLIPR.
Percentage inhibition is calculated using the following formula: % Inhibition=100%×(1−(mean RFU of test sample−mean RFU of DMSO)/(mean RFU of LPA control−mean RFU of DMSO)).
Table B3 and Table B4 show the biological activity of compounds in in vitro LPA1 Calcium flux antagonist assay—Bioduro protocol.

Where [1] appears, read: calcium mobilization on FLIPR Tetra, read-out: IC50.
Where [2] appears, read: Table B3, read-out: Activity (IC50 class).

Usually IC50 stands for the point on the concentration scale where inhibition reaches its midpoint.

Each structure is given as a SMILES string. Where two headings read alike, the source gives them in different places. Where only a bound is given, the exact number is not on record here.

T1 sequence (Q92633 whole entry): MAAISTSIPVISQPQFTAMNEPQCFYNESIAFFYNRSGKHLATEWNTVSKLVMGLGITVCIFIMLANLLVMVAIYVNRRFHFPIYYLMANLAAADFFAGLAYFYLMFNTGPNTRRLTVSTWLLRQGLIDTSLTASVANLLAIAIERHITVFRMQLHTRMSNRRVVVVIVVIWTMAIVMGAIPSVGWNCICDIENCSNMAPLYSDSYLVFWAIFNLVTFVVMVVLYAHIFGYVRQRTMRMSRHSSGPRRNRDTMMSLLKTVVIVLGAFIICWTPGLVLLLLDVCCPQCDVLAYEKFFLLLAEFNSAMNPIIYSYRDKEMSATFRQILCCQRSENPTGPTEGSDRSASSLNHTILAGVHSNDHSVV

`COc1cc(-c2ccc(NC3(C(=O)O)CC(O)C3)cc2COC2Cc3ccccc3C2)cc(OC)c1C` (stereo not shown) [Compound 131]: the 50% inhibitory concentration (IC50) was 190 nM under setting [1] and 100 to 1000 nM under setting [2].
For `COc1cc(-c2ccc(NC3(C(=O)O)CCOCC3)cc2CCC2(C)Oc3ccccc3O2)cc(OC)c1C` [Compound 132, 4-({3′,5′-dimethoxy-4′-methyl-2-[2-(2-methyl-1,3-benzodioxol-2-yl)ethyl]-[1,1′-biphenyl]-4-yl}amino)oxane-4-carboxylic acid] the same measures were 20.1 nM and below 100 nM.
For the molecule `COc1cc(-c2ccc(NC3(C(=O)O)CCN(C(C)=O)CC3)cc2COC2Cc3ccccc3C2)cc(OC)c1C` [Compound 133], the IC50 reads like this: under setting [1], 82.9 nM; under setting [2], below 100 nM.
For `COc1cc(-c2ccc(NC3(C(=O)O)CCOCC3)cc2COC2CCCC2)cc(OC)c1C` [Compound 134, 4-({2-[(cyclopentyloxy)methyl]-3′,5′-dimethoxy-4′-methyl-[1,1′-biphenyl]-4-yl}amino)-oxane-4-carboxylic acid], the concentration for half-maximal inhibition (IC50) runs as follows: under setting [1], 90.6 nM; under setting [2], below 100 nM.
For `COc1cc(-c2ccc(NC3(C(=O)O)CCOCC3)cc2COC2Cc3ccccc3C2)cc(OC)c1C(C)O` (stereo not shown) [Compound 135], the IC50 by setting is: under setting [1], 27.8 nM; under setting [2], below 100 nM.
For `COc1cc(-c2ccc(NC3(C(=O)O)CCNCC3)cc2COC2Cc3ccccc3C2)cc(OC)c1C` [Compound 136], the half-maximal inhibitory concentration (IC50) is 885 nM under setting [1] and above 1000 nM under setting [2].
Consider `CCOC1CC(Nc2ccc(-c3cc(OC)c(C)c(OC)c3)c(COC3Cc4ccccc4C3)c2)(C(=O)O)C1` (stereo not shown) [Compound 137], for which the IC50 under setting [1] is 45.2 nM and the IC50 under setting [2] was below 100 nM.
Regarding `COc1cc(-c2ccc(NC3(C(=O)O)CCN(C)CC3)cc2COC2CCCC2)cc(OC)c1C` [Compound 138], the IC50 runs as follows: under setting [1], 174 nM; under setting [2], 100 to 1000 nM.
Consider `COc1cc(-c2ccc(NC3(C(=O)O)CCN(C(C)=O)CC3)cc2COC2CCCC2)cc(OC)c1C` [Compound 139], for which the IC50 is, setting by setting: under setting [1], 353 nM; under setting [2], 100 to 1000 nM.
Turning to `COC(=O)N1CCC(Nc2ccc(-c3cc(OC)c(C)c(OC)c3)c(COC3CCCC3)c2)(C(=O)O)CC1` [Compound 140, 4-((2-((cyclopentyloxy)methyl)-3′,5′-dimethoxy-4′-methyl-[1,1′-biphenyl]-4-yl)amino)-1-(methoxycarbonyl)piperidine-4-carboxylic acid], the IC50 is 28.8 nM under setting [1] and below 100 nM under setting [2].
In the same order, the values of `COc1cc(-c2c(C)cc(NC3(C(=O)O)CCOCC3)cc2COC2CCCC2)cc(OC)c1C` [Compound 141, 4-((2-((cyclopentyloxy)methyl)-3′,5′-dimethoxy-4′,6-dimethyl-[1,1′-biphenyl]-4-yl)amino) tetrahydro-2H-pyran-4-carboxylic acid] are 24.5 nM and below 100 nM.
For `COc1cc(-c2ccc(NC3(C(=O)O)CCNCC3)cc2COC2CCCC2)cc(OC)c1C` [Compound 142], the IC50 was above 10000 nM under setting [1] and above 1000 nM under setting [2].
As to `COCC1CC(Nc2ccc(-c3cc(OC)c(C)c(OC)c3)c(COC3Cc4ccccc4C3)c2)(C(=O)O)C1` (stereo not shown) [Compound 143], the half-maximal inhibitory concentration (IC50) reads like this: under setting [1], 53.8 nM; under setting [2], below 100 nM.
Consider `COC(=O)N1CC(Nc2ccc(-c3cc(OC)c(C)c(OC)c3)c(COC3CCCC3)c2)(C(=O)O)C1` [Compound 144], for which the IC50 is 59.5 nM under setting [1] and below 100 nM under setting [2].
In the same order, the values of `COc1cc(-c2ccc(NC3(C(=O)O)CCOCC3)cc2COC2CCCC2)ccc1C` [Compound 145] are 486 nM and 100 to 1000 nM.
For `COc1cc(OC)cc(-c2ccc(NC3(C(=O)O)CCOCC3)cc2COC2CCCC2)c1` [Compound 146] the same measures were 77.2 nM and below 100 nM.
On to `COc1cc(-c2c(F)cc(NC3(C(=O)O)CCOCC3)cc2COC2CCCC2)cc(OC)c1C` [Compound 147, 4-((2-((cyclopentyloxy)methyl)-6-fluoro-3′,5′-dimethoxy-4′-methyl-[1,1′-biphenyl]-4-yl)amino)tetrahydro-2H-pyran-4-carboxylic acid], for which the IC50 under setting [1] amounted to 20.9 nM and the IC50 under setting [2] is below 100 nM.
Take `COc1cc(-c2ccc(NC3(C(=O)O)CCOCC3)cc2COC2CCCC2)c(C)c(OC)c1C` [Compound 148, 4-((2-((cyclopentyloxy)methyl)-3′,5′-dimethoxy-2′,4′-dimethyl-[1,1′-biphenyl]-4-yl)amino)tetrahydro-2H-pyran-4-carboxylic acid]: the 50% inhibitory concentration (IC50) by setting is: under setting [1], 10.5 nM; under setting [2], below 100 nM.
In the same order, the values of `COc1cc(-c2c(C)cc(NC3(C(=O)O)CCOCC3)cc2COC2CCCC2)c(C)c(OC)c1C` [Compound 149] are 88 nM and below 100 nM.
For `COc1cc(-c2ccc(NC3(C(=O)O)CCOCC3)cc2COCC2(C#N)CC2)cc(OC)c1C` [Compound 151] the same measures were 1580 nM and above 1000 nM.
Consider `COc1cc(-c2ccc(NC3(C(=O)O)CCOCC3)cc2COC2CCCC2)cc(OC)n1` [Compound 152, 4-((3-((cyclopentyloxy)methyl)-4-(2,6-dimethoxypyridin-4-yl)phenyl)amino)tetrahydro-2H-pyran-4-carboxylic acid], for which the IC50 reads like this: under setting [1], 390 nM; under setting [2], 100 to 1000 nM.
For `COc1cc(-c2ccc(NC3(C(=O)O)CCOCC3)cc2CNC2CCCC2)cc(OC)c1C` [Compound 153] the same measures were above 10000 nM and above 1000 nM.
In the same order, the values of `COC(=O)N1CCC(Nc2cc(C)c(-c3cc(OC)cc(OC)c3)c(COC3CCCC3)c2)(C(=O)O)CC1` [Compound 154] are 224 nM and 100 to 1000 nM.
In the same order, the values of `CCOC(=O)N1CCC(Nc2cc(C)c(-c3cc(OC)cc(OC)c3)c(COC3CCCC3)c2)(C(=O)O)CC1` [Compound 155] are 252 nM and 100 to 1000 nM.
As for `COc1cc(OC)cc(-c2c(C)cc(NC3(C(=O)O)CCOCC3)cc2COC2CCCC2)c1` [Compound 156], the IC50 under setting [1] came out at 162 nM and the IC50 under setting [2] is 100 to 1000 nM.
In the same order, the values of `COC(=O)N1CCC(Nc2ccc(-c3cc(OC)cc(OC)c3)c(COC3CCCC3)c2)(C(=O)O)CC1` [Compound 157] are 112 nM and 100 to 1000 nM.
In the same order, the values of `COC(=O)N1CCC(Nc2cc(C)c(-c3cc(C#N)cc(OC)c3)c(COC3CCCC3)c2)(C(=O)O)CC1` [Compound 161] are 976 nM and 100 to 1000 nM.
For `COc1cc(-c2c(C)cc(OC3(C(=O)O)CCOCC3)cc2COC2CCCC2)cc(OC)c1C` [Compound 163] the same measures were 382 nM and 100 to 1000 nM.
For the molecule `COc1cc(O)nc(-c2c(C)cc(NC3(C(=O)O)CCOCC3)cc2COC2CCCC2)c1` [Compound 164], the half-maximal inhibitory concentration (IC50) reads like this: under setting [1], above 10000 nM; under setting [2], above 1000 nM.
In the case of `COc1cc(-c2ccc(NC3(C(=O)O)CCOCC3)cc2COC2CCCC2)c(F)c(OC)c1C` [Compound 165], the concentration for half-maximal inhibition (IC50) under setting [1] was found to be 10.9 nM and the IC50 under setting [2] was below 100 nM.
For `COc1cc(-c2ccc(NC3(C(=O)O)CCOCC3)cc2COC2CCCC2)c(Cl)c(OC)c1C` [Compound 166] the same measures were 9.31 nM and below 100 nM.
In the same order, the values of `COc1cc(-c2c(F)cc(NC3(C(=O)O)CCOCC3)cc2COC2CCCC2)c(F)c(OC)c1C` [Compound 168] are 27.6 nM and below 100 nM.
On to `COc1cc(OC)cc(-c2ccc(NC3(C(=O)O)CCOCC3)cc2CO[C@H]2CCC[C@H]2NC(C)=O)c1` [Compound 169], for which the 50% inhibitory concentration (IC50) was above 10000 nM under setting [1] and above 1000 nM under setting [2].
In the same order, the values of `COc1cc(OC)nc(-c2c(C)cc(NC3(C(=O)O)CCOCC3)cc2COC2CCCC2)c1` [Compound 170] are 1500 nM and above 1000 nM.
In the same order, the values of `COC(=O)N1CCC(Nc2cc(C)c(-c3cc(OC)ccn3)c(COC3CCCC3)c2)(C(=O)O)CC1` [Compound 171] are above 10000 nM and above 1000 nM.
Take `COc1cccc(-c2ccc(NC3(C(=O)O)CCOCC3)cc2COC2CCCC2)c1C` [Compound 172]: the IC50 runs as follows: under setting [1], 82.1 nM; under setting [2], below 100 nM.
In the same order, the values of `COc1ccc(C)c(-c2ccc(NC3(C(=O)O)CCOCC3)cc2COC2CCCC2)c1` [Compound 173] are 314 nM and 100 to 1000 nM.
As to `COc1cc(OC)c(Cl)c(-c2c(F)cc(NC3(C(=O)O)CCOCC3)cc2COC2CCCC2)c1` [Compound 174], the IC50 under setting [1] is 29.3 nM and the IC50 under setting [2] was below 100 nM.
Regarding `COc1cc(-c2c(COC3CCCC3)cc(NC3(C(=O)O)CCOCC3)cc2OC)cc(OC)c1C` [Compound 175], the half-maximal inhibitory concentration (IC50) is 175 nM under setting [1] and 100 to 1000 nM under setting [2].
In the same order, the values of `COCC(=O)N1CCC(Nc2cc(C)c(-c3cc(OC)cc(OC)c3)c(COC3CCCC3)c2)(C(=O)O)CC1` [Compound 176] are 883 nM and 100 to 1000 nM.
In the same order, the values of `COc1cc(OC)nc(-c2c(C)cc(NC3(C(=O)O)CCOCC3)cc2COC2CCCC2)n1` [Compound 178] are 1320 nM and above 1000 nM.
